# Laboratory results from US6281355A, “Nitrogen-containing tetracyclic compounds” (Taisho Pharmaceutical Co., Ltd., priority 1997, dated 2001).
# Biological target: T1, mitochondrial diazepam binding inhibitor receptor (MDR) (Rattus norvegicus, UniProt P16257)
# T1 construct: Crude mitochondria fractions prepared from rat cerebral cortex were used as a receptor sample; from tissue; host or cells: rat cerebral cortex, crude mitochondria fraction
# Experiment: MDR Receptor Binding Assay ([3H]PK11195 binding to crude mitochondria fraction of rat cerebral cortex)
# Settings: inhibition of [3H]PK11195 (2 nM) binding; rat cerebral cortex crude mitochondria 1.0 mg protein/ml; 4° C., 90 minutes; non-specific: 10 μM PK11195
# Method: Experiment [MDR Receptor Binding Assay]
# Crude mitochondria fractions prepared from rat cerebral cortex were used as a receptor sample, and [^3 H]PK11195 was used as a [^3 H]-labeled ligand.
# A binding assay using the [^3 H]-labeled ligand was carried out according to the following method as described in Journal of Pharmacology and Experimental Therapeutics, 262, 971(1992).
# Preparation of Receptor Sample: Rat cerebral cortex was homogenized using a Teflon-coated homogenizer in a 10 mM HEPES buffer (pH 7.4) containing 0.32 M sucrose in ten volumes of the wet weight. The homogenate was centrifuged at 900× g for 10 minutes, and the resulting supernatant was centrifuged at 9,000× g for 10 minutes. The precipitate was suspended in a HEPES buffer to give a protein concentration of 1 mg/ml, and centrifuged at 12,000× g for 10 minutes. The resulting precipitate was suspended in a 50 mM HEPES buffer (pH 7.4) to give a crude mitochondria fraction.
# MDR Binding Assay: Mitochondria sample (1.0 mg protein/ml), [^3 H]PK11195 (2 nM) and the test drug were reacted at 4° C. for 90 minutes.
# After completion of the reaction, the reaction mixture was filtered with suction through a glass filter (GF/B) treated with 0.3% polyethyleneimine,and the radioactivity on the filter was measured by a liquid scintillation spectrometer.
# The binding at the reaction in the presence of 10 μM PK11195 was defined as non-specific binding of [^3 H]PK11195, and the difference between total binding and non-specific binding was defined as specific binding.
# T1 sequence (P16257 whole entry): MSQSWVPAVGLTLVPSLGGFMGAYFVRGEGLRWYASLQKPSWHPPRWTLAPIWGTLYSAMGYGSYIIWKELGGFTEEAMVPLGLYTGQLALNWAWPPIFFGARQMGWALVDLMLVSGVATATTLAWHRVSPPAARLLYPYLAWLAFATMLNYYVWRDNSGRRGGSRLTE
row,IC50 [µM],Structure (SMILES)
1,0.0423,"CCCCCCN(CCCCCC)C(=O)C1Sc2ccccc2-c2[nH]c3ccccc3c21 (single isomer, unassigned; (-)) [Compound 07, (-)-N,N-Dihexyl-6,11-dihydro-5-thia-11-aza-benzo[a]fluoren-6-carboxamide]"
2,0.00135,"CCCCCCN(CCCCCC)C(=O)C1Sc2ccccc2-c2c1c1ccccc1n2C (stereo not drawn) [Compound 16, N,N-Dihexyl-6,11-dihydro-11-methyl-5-thia-11-aza-benzo[a]fluoren-6-carboxamide]"
3,0.0559,CCCNC(=O)C1Sc2ccccc2-c2[nH]c3ccccc3c21 (stereo not drawn) [Compound 02]
4,0.0201,CCCCCCN(CCCCCC)C(=O)C1Sc2ccccc2-c2[nH]c3ccc(Cl)cc3c21 (stereo not drawn) [Compound 10]
5,0.00498,COCCN(CCOC)C(=O)C1Sc2ccccc2-c2[nH]c3ccccc3c21 (stereo not drawn) [Compound 15]
6,0.000443,CCN(CC)C(=O)C1Sc2ccccc2-c2[nH]c3ccccc3c21 (stereo not drawn) [Compound 04]
7,0.0221,CCCCCCN(CCCCCC)C(=O)C1Sc2ccccc2-c2[nH]c3c(F)cc(F)cc3c21 (stereo not drawn) [Compound 12]
8,0.00135,CCCCCCN(CCOCCC)C(=O)C1Sc2ccccc2-c2[nH]c3ccccc3c21 (stereo not drawn) [Compound 14]
9,0.00376,"CCCCCCN(CCCCCC)C(=O)C1Sc2ccccc2-c2[nH]c3ccccc3c21 (racemic) [Compound 06, N,N-Dihexyl-6,11-dihydro-5-thia-11-aza-benzo[a]fluoren-6-carboxamide]"
10,0.0138,CCCCCCN(CCCCCC)C(=O)C1Sc2ccccc2-c2[nH]c3ccc(F)cc3c21 (stereo not drawn) [Compound 09]
11,0.00112,"CCCN(CCC)C(=O)C1c2c([nH]c3ccccc23)-c2ccccc2S1(=O)=O (stereo not drawn) [Compound 21, N,N-dipropyl-6,11-dihydro-5-thia-11-aza-benzo[a]fluoren-6-carboxamide 5,5-dioxide]"
12,0.00215,"CCCCCCN(CCCCCC)C(=O)C1Sc2ccccc2-c2[nH]c3ccccc3c21 (single isomer, unassigned; (+)) [Compound 08, (+)-N,N-Dihexyl-6,11-dihydro-5-thia-11-aza-benzo[a]fluoren-6-carboxamide]"
13,0.00123,CCCCCCN(CCCCCC)C(=O)C1c2c([nH]c3ccccc23)-c2ccccc2S1(=O)=O (stereo not drawn) [Compound 22]
14,0.000368,"CCCN(CCC)C(=O)C1Sc2ccccc2-c2[nH]c3ccccc3c21 (stereo not drawn) [Compound 05, N,N-dipropyl-6,11-dihydro-5-thia-11-aza-benzo[a]fluoren-6-carboxamide]"
15,0.0739,CCCN(CCC)C(=O)C1Cc2ccccc2-c2nc3ccccc3n21 (stereo not drawn) [Compound 25]
16,0.0385,CN(C)C(=O)C1Sc2ccccc2-c2[nH]c3ccccc3c21 (stereo not drawn) [Compound 03]
17,0.0423,"CCCCCCN(CCCCCC)C(=O)C1Cc2ccccc2-c2nc3ccccc3n21 (stereo not drawn) [Compound 26, N,N-dihexyl-5,6-dihydro-benzo[4,5]imidazo[2,1-a]isoquinoline-6-carboxamide]"
18,0.0139,CCCCCCN(CCCCCC)C(=O)C1Sc2ccccc2-c2[nH]c3ccc(C)cc3c21 (stereo not drawn) [Compound 11]
19,0.0351,CCCCCCN(CCCCCC)C(=O)C1c2c([nH]c3ccccc23)-c2ccccc2N1C=O (stereo not drawn) [Compound 27]
20,0.0126,CCCCCCN(CCCCCC)C(=O)C1c2c([nH]c3ccccc23)-c2ccccc2N1C(C)=O (stereo not drawn) [Compound 28]
21,0.00135,CCCCCCN(CCCCCC)C(=O)C1Cc2ccccc2-c2[nH]c3ccccc3c21 (stereo not drawn) [Compound 23]
